Laboratory results from US20030129255A1, “Colloidal silver suspension for treating skin problems in tropical and decorative fish” (priority 2002, published 2003).

Tested on: nitrifying bacteria
Method: In accordance with the present invention, a method of treating skin problems in fish comprises adding a teaspoon (5 ml) of a suspension of colloidal silver in which the concentration of silver ranges between 6 ppm and 12 ppm (parts per million) to 10 gallons of water in an aquarium every other day and then changing 50% of the water once a week, so that the water to which the fish to be treated are exposed has a silver concentration initially in the range of 0.77 ppb to 1.5 ppb (parts per billion).

colloidal silver
survival of nitrifying bacteria: some nitrifying bacteria can survive this treatment
